Article PMC3429506, “Screening for Novel LRRK2 Inhibitors Using a High-Throughput TR-FRET Cellular Assay for LRRK2 Ser935 Phosphorylation” (PLoS ONE, 2012)

Experiments:
LRRK2 G2019S [1] = biological target: T1, LRRK2 G2019S (Homo sapiens, UniProt Q5S007, G2019S); assay: TR-FRET cellular assay for LRRK2 Ser935 phosphorylation, HEK293T cells, BacMam LRRK2-GFP G2019S; set-up: This high-throughput assay utilizes cells expressing full-length human LRRK2 with a C-terminal GFP tag (LRRK2-GFP); host or cells: HEK293T cells transduced with BacMam; settings: +/- SD, three independent experiments, * = partial inhibition, read-out: IC50, TR-FRET cell-based assay for Ser935 phosphorylation of LRRK2
Protocol: (§1) U-2 OS cells are maintained in growth medium (McCoy’s 5A supplemented with 10% dialyzed FBS (dFBS), 10 mM HEPES, 0.1 mM NEAA, 1 mM Sodium Pyruvate, and 100 U/mL Penicillin/100 µg/mL Streptomycin). HEK293T cells are maintained in DMEM with 10% dFBS, 10 mM HEPES, 0.1 mM NEAA and 100 U/mL Penicillin/100 µg/mL Streptomycin. SH-SY5Y cells are maintained in DMEM/F-12 medium supplemented with 10% dFBS and 100 U/mL Penicillin/100 µg/mL Streptomycin. […] GIBCO® human neural stem cells (hNSCs) were propagated as an adherent culture in StemPro® NSC SFM according to the manufacturer’s recommended protocol (Life Technologies). For BacMam transduction of U-2 OS and HEK293T, cells were harvested, mixed with various amounts of BacMam LRRK2-GFP reagent (v/v) and plated onto 6-well plates. […] Cells were assayed in 384-well format (∼20,000 cells/well) 48 hours post-transduction as above.
(§2) Transduced cells in the 384-well assay plate were incubated with indicated inhibitors (5X, 5 µL/well) for 60 to 90 minutes. During this time, 6 X lysis buffer (Life Technologies) was supplemented with 30 nM Tb-labeled anti-LRRK2 pSer935 antibody and both protease and phosphatase inhibitor cocktails (Sigma). The complete 6 X lysis buffer was added to each well (5 µL/well) and the plates were incubated at room temperature in the dark for 2 hours. […] A sigmoidal dose-response equation with varying slope was used to fit the data and generate IC50 values. Z′-factor values were calculated as: Z′-factor = 1 - [(3 × stdevno virus +3 × stdevmaxvirus)/(avgmaxvirus – avgno-virus)]. The IC50 values reported in Table 1 are the averaged numbers from three independent experiments.

LRRK2 wild-type [2] = biological target: T2, LRRK2 wild-type (Homo sapiens, UniProt Q5S007); assay: TR-FRET cellular assay for LRRK2 Ser935 phosphorylation, HEK293T cells, BacMam LRRK2-GFP wild-type; set-up: This high-throughput assay utilizes cells expressing full-length human LRRK2 with a C-terminal GFP tag (LRRK2-GFP); host or cells: HEK293T cells transduced with BacMam; settings: WT, +/- SD, three independent experiments, * = partial inhibition, read-out: IC50, TR-FRET cell-based assay for Ser935 phosphorylation of LRRK2
Protocol: as §1, §2

LRRK2 G2019S [3] = biological target: T1, LRRK2 G2019S; assay: TR-FRET cellular assay for LRRK2 Ser935 phosphorylation, U-2 OS cells, BacMam LRRK2-GFP G2019S; format: cell-based; set-up: This high-throughput assay utilizes cells expressing full-length human LRRK2 with a C-terminal GFP tag (LRRK2-GFP); host or cells: U-2 OS, SH-SY5Y, HEK293T cells or human neural stem cells transduced with BacMam; settings: G2019S, +/- SD, three independent experiments, * = partial inhibition, read-out: IC50, TR-FRET cell-based assay for Ser935 phosphorylation of LRRK2
Protocol: as §1, §2

in vitro = settings: human
LRRK2 G2019S [4] = biological target: T1, LRRK2 G2019S; assay: In vitro biochemical LRRK2 TR-FRET activity assay
Protocol: The Biochemical LRRK2 TR-FRET activity assay was performed according to the manufacture recommended assay protocol (Life Technologies). […] After incubation at room temperature for 1 hour, the kinase reactions were stopped by addition of 10 µL of 20 mM EDTA and 4 nM Tb-anti-pERM (pLRRKtide) antibody in TR-FRET dilution buffer (Life Technologies). After a 30 minute incubation at room temperature, TR-FRET measurements were obtained on a BMG PHERAstar plate reader using LanthaScreen® filters and settings. A 16 point, 2-fold dilution series of each compound was tested in triplicate at each concentration and assays were also performed in triplicate.

LRRK2 wild-type [5] = biological target: T2, LRRK2 wild-type; assay: TR-FRET cellular assay for LRRK2 Ser935 phosphorylation, U-2 OS cells, BacMam LRRK2-GFP wild-type; format: cell-based; set-up: This high-throughput assay utilizes cells expressing full-length human LRRK2 with a C-terminal GFP tag (LRRK2-GFP); host or cells: U-2 OS cells transduced with BacMam; settings: WT, +/- SD, three independent experiments, * = partial inhibition, read-out: IC50, TR-FRET cell-based assay for Ser935 phosphorylation of LRRK2
Protocol: as §1, §2

LRRK2 wild-type [6] = biological target: T2, LRRK2 wild-type; assay: TR-FRET cellular assay for LRRK2 Ser935 phosphorylation, SH-SY5Y cells, BacMam LRRK2-GFP wild-type; format: cell-based; set-up: This high-throughput assay utilizes cells expressing full-length human LRRK2 with a C-terminal GFP tag (LRRK2-GFP); host or cells: SH-SY5Y cells transduced with BacMam; settings: WT, +/- SD, three independent experiments, * = partial inhibition, read-out: IC50, TR-FRET cell-based assay for Ser935 phosphorylation of LRRK2
Protocol: as §1, §2

LRRK2 G2019S [7] = biological target: T1, LRRK2 G2019S; assay: TR-FRET cellular assay for LRRK2 Ser935 phosphorylation, SH-SY5Y cells, BacMam LRRK2-GFP G2019S (incl. Tocriscreen Mini library screen and follow-up); format: cell-based; set-up: This high-throughput assay utilizes cells expressing full-length human LRRK2 with a C-terminal GFP tag (LRRK2-GFP); host or cells: SH-SY5Y cells transduced with BacMam; settings: for IC50: three independent experiments
Protocol: as §1, §2
40 nL of 10 mM Tocris library compounds in DMSO were dispensed into each well of the assay plate by the ECHO system. Equal volumes of DMSO were dispensed into the control wells. Cells were incubated with compounds for 90 to 120 min prior to cell lysis and detection as described above. The percent inhibition is calculated as: [(average emission ratios of DMSO control wells – average emission ratios of compound wells)/(average emission ratios of DMSO control wells – average emission ratios of LRRK2-IN-1 treated wells)] * 100. For the dose-response follow-up studies, fresh compound DMSO stock solutions were prepared from powder. […] Z′-factor value was calculated as: Z′-factor = 1 - [(3 × stdevLRRK2-IN-1+3 × stdevDMSO)/(avgDMSO – avgLRRK2-IN-1)]. The IC50 values reported in Table 2 are the averaged numbers from three independent experiments for both cellular and biochemical TR-FRET assays and one representative result of two independent experiments for the cytotoxicity assay.

T2 sequence (Q5S007 whole entry): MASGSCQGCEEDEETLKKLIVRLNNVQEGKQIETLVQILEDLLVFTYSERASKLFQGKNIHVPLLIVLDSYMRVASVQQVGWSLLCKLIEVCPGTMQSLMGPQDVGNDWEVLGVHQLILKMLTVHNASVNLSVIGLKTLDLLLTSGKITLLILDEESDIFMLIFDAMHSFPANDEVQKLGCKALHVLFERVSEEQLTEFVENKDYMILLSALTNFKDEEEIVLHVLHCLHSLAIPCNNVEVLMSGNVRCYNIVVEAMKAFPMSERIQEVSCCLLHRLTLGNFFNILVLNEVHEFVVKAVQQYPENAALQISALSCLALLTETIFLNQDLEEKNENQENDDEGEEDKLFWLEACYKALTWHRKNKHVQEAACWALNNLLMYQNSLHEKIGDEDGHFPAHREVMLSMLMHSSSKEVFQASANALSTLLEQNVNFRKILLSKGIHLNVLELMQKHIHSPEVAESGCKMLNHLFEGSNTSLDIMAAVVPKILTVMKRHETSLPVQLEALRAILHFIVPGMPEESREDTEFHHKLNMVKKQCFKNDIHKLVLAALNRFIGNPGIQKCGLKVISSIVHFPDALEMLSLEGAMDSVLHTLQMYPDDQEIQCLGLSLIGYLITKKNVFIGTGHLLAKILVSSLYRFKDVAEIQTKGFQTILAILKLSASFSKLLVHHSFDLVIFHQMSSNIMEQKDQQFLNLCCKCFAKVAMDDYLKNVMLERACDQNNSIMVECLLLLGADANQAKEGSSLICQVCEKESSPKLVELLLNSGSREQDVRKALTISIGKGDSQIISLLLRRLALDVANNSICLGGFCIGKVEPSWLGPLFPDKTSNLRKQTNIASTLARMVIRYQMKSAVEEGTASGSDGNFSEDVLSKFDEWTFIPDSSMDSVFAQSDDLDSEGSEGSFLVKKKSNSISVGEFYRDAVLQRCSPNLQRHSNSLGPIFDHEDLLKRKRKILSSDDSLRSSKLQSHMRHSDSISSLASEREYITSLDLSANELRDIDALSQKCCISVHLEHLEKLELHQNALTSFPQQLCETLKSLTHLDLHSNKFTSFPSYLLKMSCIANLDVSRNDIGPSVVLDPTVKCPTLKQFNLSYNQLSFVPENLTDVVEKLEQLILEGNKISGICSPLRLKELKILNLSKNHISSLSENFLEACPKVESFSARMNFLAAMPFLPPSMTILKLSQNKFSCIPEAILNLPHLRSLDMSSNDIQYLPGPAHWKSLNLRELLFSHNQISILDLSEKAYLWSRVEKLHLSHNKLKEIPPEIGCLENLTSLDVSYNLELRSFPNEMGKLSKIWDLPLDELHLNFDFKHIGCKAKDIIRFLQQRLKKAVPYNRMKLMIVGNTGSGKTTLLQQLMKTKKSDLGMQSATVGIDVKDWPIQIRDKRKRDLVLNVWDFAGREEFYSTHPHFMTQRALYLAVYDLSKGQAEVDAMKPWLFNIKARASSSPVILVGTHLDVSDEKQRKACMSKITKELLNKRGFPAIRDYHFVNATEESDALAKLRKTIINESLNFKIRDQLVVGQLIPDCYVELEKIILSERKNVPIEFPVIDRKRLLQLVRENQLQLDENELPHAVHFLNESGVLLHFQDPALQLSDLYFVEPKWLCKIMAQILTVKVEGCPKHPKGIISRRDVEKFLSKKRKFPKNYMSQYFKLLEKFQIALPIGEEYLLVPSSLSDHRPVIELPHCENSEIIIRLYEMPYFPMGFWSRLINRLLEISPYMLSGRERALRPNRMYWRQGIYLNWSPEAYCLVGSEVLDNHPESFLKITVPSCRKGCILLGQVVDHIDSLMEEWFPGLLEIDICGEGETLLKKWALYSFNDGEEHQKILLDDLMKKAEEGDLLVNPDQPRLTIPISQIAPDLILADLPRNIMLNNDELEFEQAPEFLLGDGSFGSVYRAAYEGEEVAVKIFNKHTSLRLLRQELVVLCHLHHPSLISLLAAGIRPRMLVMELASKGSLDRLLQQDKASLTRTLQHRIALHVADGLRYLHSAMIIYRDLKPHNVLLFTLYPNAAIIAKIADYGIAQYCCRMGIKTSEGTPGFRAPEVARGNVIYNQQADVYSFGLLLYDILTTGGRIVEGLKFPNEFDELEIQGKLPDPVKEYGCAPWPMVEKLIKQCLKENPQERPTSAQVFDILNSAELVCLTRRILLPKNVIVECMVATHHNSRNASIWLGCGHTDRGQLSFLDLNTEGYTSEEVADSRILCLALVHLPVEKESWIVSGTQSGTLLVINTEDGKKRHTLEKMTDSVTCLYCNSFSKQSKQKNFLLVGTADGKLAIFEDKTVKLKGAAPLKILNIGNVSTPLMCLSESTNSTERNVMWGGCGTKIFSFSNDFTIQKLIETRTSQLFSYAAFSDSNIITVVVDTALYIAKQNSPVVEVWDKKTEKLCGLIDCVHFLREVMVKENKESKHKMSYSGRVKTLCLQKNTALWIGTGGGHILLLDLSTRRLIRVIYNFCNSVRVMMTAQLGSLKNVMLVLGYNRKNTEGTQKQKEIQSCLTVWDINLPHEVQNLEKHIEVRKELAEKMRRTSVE
T1 sequence (Q5S007 whole entry G2019S): as the sequence (Q5S007 whole entry) above, with G2019S counted along it

## O=Nc1c(-c2c(O)[nH]c3ccccc23)[nH]c2ccccc12 [Indirubin-3-monoxime, Indirubin-3′-monoxime]
LRRK2 G2019S [1]
  IC50: 2.78 µM
LRRK2 wild-type [2]
  IC50: 3.68 µM
LRRK2 G2019S [3]
  IC50: 1.93 µM
In vitro
  IC50: > 20 µM
LRRK2 G2019S [4]; LRRK2 G2019S, ATP 134 µM (Km,app), LRRKtide substrate, three independent experiments, read-out: Biochemical LRRK2 assay IC50 +/- SD
  IC50: > 10 µM
LRRK2 G2019S [4]; result in words
  effect on LRRK2 activity in vitro: did not repress LRRK2 activity in vitro
LRRK2 wild-type [5]
  IC50: 3.78 µM
LRRK2 wild-type [6]
  IC50: > 10 µM
LRRK2 G2019S [7]; SH-SY5Y, G2019S, +/- SD, * = partial inhibition, read-out: IC50, TR-FRET cell-based assay for Ser935 phosphorylation of LRRK2
  IC50: 6.15 µM
LRRK2 G2019S [7]; SH-SY5Y, Tocriscreen Mini library screen, 20 µM, SH-SY5Y G2019S, relative to LRRK2-IN-1 control, read-out: %Inhibition Initial screen
  inhibition at 20 µM: 63.5%
LRRK2 G2019S [7]; dose-response follow-up, SH-SY5Y G2019S, 90 min
  Cellular TR-FRET Assay Max % Inhibition: 64%
LRRK2 G2019S [7]; dose-response follow-up, SH-SY5Y G2019S, read-out: Cellular TR-FRET Assay IC50 +/-SD
  IC50: 4.4 µM
